Results: ChEMBL document CHEMBL4334508, “Oleanolic Acid Derivatives as Potential Inhibitors of HIV-1 Protease” (J Nat Prod, 2019)

What follows are compounds tested against Protease (Human immunodeficiency virus 1, UniProt Q9YQ12) (assay: Inhibition of HIV1 protease expressed in Escherichia coli using Abz-Ala-Arg-Val-Nle-Tyr(NO2)-Glu-Ala-Nle-NH2 peptide as substrate by FRET assay).
Sequence of Protease (Q9YQ12 whole entry): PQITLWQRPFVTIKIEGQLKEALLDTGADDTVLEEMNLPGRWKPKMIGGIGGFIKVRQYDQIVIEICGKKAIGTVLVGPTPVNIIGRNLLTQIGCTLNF

Row | IC50 | SMILES
1 | > 50 µM | CCCCCC(=O)O[C@H]1CC[C@]2(C)[C@H]3CC=C4[C@@H]5CC(C)(C)CC[C@]5(C(=O)NCCCC(=O)N[C@@H](C)C(=O)O)CC[C@@]4(C)[C@]3(C)CC[C@H]2C1(C)C
2 | > 50 µM | CC1(C)CC[C@]2(C(=O)NCCCCCC(=O)NCC(=O)O)CC[C@]3(C)C(=CC[C@@H]4[C@@]5(C)CC[C@H](OC(=O)CCC(=O)O)C(C)(C)[C@@H]5CC[C@]43C)[C@@H]2C1
3 | 19.8 µM | CC(C)[C@H](NC(=O)CCCNC(=O)[C@]12CCC(C)(C)C[C@H]1C1=CC[C@@H]3[C@@]4(C)CC[C@H](OC(=O)CCCC(=O)O)C(C)(C)[C@@H]4CC[C@@]3(C)[C@]1(C)CC2)C(=O)O
4 | 41.5 µM | CC(C)[C@H](NC(=O)CCCNC(=O)[C@]12CCC(C)(C)C[C@H]1C1=CC[C@@H]3[C@@]4(C)CC[C@H](OC(=O)CCC(=O)O)C(C)(C)[C@@H]4CC[C@@]3(C)[C@]1(C)CC2)C(=O)O
5 | 12.4 µM | CC(C)(CC(=O)O)CC(=O)O[C@H]1CC[C@]2(C)[C@H]3CC=C4[C@@H]5CC(C)(C)CC[C@]5(C(=O)NCCCCCC(=O)O)CC[C@@]4(C)[C@]3(C)CC[C@H]2C1(C)C
6 | 33.3 µM | CC(C)(CC(=O)O)CC(=O)O[C@H]1CC[C@]2(C)[C@H]3CC=C4[C@@H]5CC(C)(C)CC[C@]5(C(=O)NCCCC(=O)O)CC[C@@]4(C)[C@]3(C)CC[C@H]2C1(C)C
7 | 20.4 µM | CC1(C)CC[C@]2(C(=O)NCCCC(=O)O)CC[C@]3(C)C(=CC[C@@H]4[C@@]5(C)CC[C@H](OC(=O)CCCC(=O)O)C(C)(C)[C@@H]5CC[C@]43C)[C@@H]2C1
8 | 17.7 µM | CC1(C)CC[C@]2(C(=O)NCCCC(=O)O)CC[C@]3(C)C(=CC[C@@H]4[C@@]5(C)CC[C@H](OC(=O)CCC(=O)O)C(C)(C)[C@@H]5CC[C@]43C)[C@@H]2C1

More lines, now with the values behind:

Row | SMILES | IC50
9 | CC(C)(CC(=O)O)CC(=O)O[C@H]1CC[C@]2(C)[C@H]3CC=C4[C@@H]5CC(C)(C)CC[C@]5(C(=O)NCCCCCCCCCCC(=O)O)CC[C@@]4(C)[C@]3(C)CC[C@H]2C1(C)C | > 50 µM
10 | CCCCCCCCCCCC(=O)O[C@H]1CC[C@]2(C)[C@H]3CC=C4[C@@H]5CC(C)(C)CC[C@]5(C(=O)NCCCC(=O)O)CC[C@@]4(C)[C@]3(C)CC[C@H]2C1(C)C | > 50 µM
11 | CC1(C)CC[C@]2(C(=O)NCCCCCC(=O)NCC(=O)O)CC[C@]3(C)C(=CC[C@@H]4[C@@]5(C)CC[C@H](OC(=O)c6ccccc6C(=O)O)C(C)(C)[C@@H]5CC[C@]43C)[C@@H]2C1 | 3.1 µM
12 | CC1(C)CC[C@]2(C(=O)NCCCCCCCCCCC(=O)NCC(=O)O)CC[C@]3(C)C(=CC[C@@H]4[C@@]5(C)CC[C@H](OC(=O)c6ccccc6C(=O)O)C(C)(C)[C@@H]5CC[C@]43C)[C@@H]2C1 | 2.3 µM
13 | CCCCCC(=O)O[C@H]1CC[C@]2(C)[C@H]3CC=C4[C@@H]5CC(C)(C)CC[C@]5(C(=O)NCCCCCC(=O)NCC(=O)O)CC[C@@]4(C)[C@]3(C)CC[C@H]2C1(C)C | > 50 µM
14 | CCCCCCCCCCCC(=O)O[C@H]1CC[C@]2(C)[C@H]3CC=C4[C@@H]5CC(C)(C)CC[C@]5(C(=O)NCCCCCCCCCCC(=O)O)CC[C@@]4(C)[C@]3(C)CC[C@H]2C1(C)C | > 50 µM
15 | CC(C)(CC(=O)O)CC(=O)O[C@H]1CC[C@]2(C)[C@H]3CC=C4[C@@H]5CC(C)(C)CC[C@]5(C(=O)NCCCCCCCCCCC(=O)NCC(=O)O)CC[C@@]4(C)[C@]3(C)CC[C@H]2C1(C)C | > 50 µM
16 | CCCCCCCCCCCC(=O)O[C@H]1CC[C@]2(C)[C@H]3CC=C4[C@@H]5CC(C)(C)CC[C@]5(C(=O)NCCCCCC(=O)N[C@H](C(=O)O)C(C)C)CC[C@@]4(C)[C@]3(C)CC[C@H]2C1(C)C | > 50 µM
17 | CCC(=O)O[C@H]1CC[C@]2(C)[C@H]3CC=C4[C@@H]5CC(C)(C)CC[C@]5(C(=O)NCCCCCC(=O)NCC(=O)O)CC[C@@]4(C)[C@]3(C)CC[C@H]2C1(C)C | > 50 µM
18 | CCC(=O)O[C@H]1CC[C@]2(C)[C@H]3CC=C4[C@@H]5CC(C)(C)CC[C@]5(C(=O)NCCCCCCCCCCC(=O)NCC(=O)O)CC[C@@]4(C)[C@]3(C)CC[C@H]2C1(C)C | > 50 µM
19 | CC(C)[C@H](NC(=O)CCCCCCCCCCNC(=O)[C@]12CCC(C)(C)C[C@H]1C1=CC[C@@H]3[C@@]4(C)CC[C@H](OC(=O)CCCC(=O)O)C(C)(C)[C@@H]4CC[C@@]3(C)[C@]1(C)CC2)C(=O)O | > 50 µM
20 | CCCCCC(=O)O[C@H]1CC[C@]2(C)[C@H]3CC=C4[C@@H]5CC(C)(C)CC[C@]5(C(=O)NCCCCCCCCCCC(=O)N[C@H](C(=O)O)C(C)C)CC[C@@]4(C)[C@]3(C)CC[C@H]2C1(C)C | > 50 µM
21 | CC1(C)CC[C@]2(C(=O)NCCCC(=O)NCC(=O)O)CC[C@]3(C)C(=CC[C@@H]4[C@@]5(C)CC[C@H](OC(=O)c6ccccc6)C(C)(C)[C@@H]5CC[C@]43C)[C@@H]2C1 | > 50 µM
22 | CCCC(=O)O[C@H]1CC[C@]2(C)[C@H]3CC=C4[C@@H]5CC(C)(C)CC[C@]5(C(=O)NCCCCCCCCCCC(=O)N[C@@H](C)C(=O)O)CC[C@@]4(C)[C@]3(C)CC[C@H]2C1(C)C | > 50 µM
23 | CC(=O)O[C@H]1CC[C@]2(C)[C@H]3CC=C4[C@@H]5CC(C)(C)CC[C@]5(C(=O)NCCCCCC(=O)NCC(=O)O)CC[C@@]4(C)[C@]3(C)CC[C@H]2C1(C)C | > 50 µM
24 | C[C@H](NC(=O)CCCCCCCCCCNC(=O)[C@]12CCC(C)(C)C[C@H]1C1=CC[C@@H]3[C@@]4(C)CC[C@H](OC(=O)c5ccccc5)C(C)(C)[C@@H]4CC[C@@]3(C)[C@]1(C)CC2)C(=O)O | > 50 µM
25 | CC(C)[C@H](NC(=O)CCCCCNC(=O)[C@]12CCC(C)(C)C[C@H]1C1=CC[C@@H]3[C@@]4(C)CC[C@H](OC(=O)CC(C)(C)CC(=O)O)C(C)(C)[C@@H]4CC[C@@]3(C)[C@]1(C)CC2)C(=O)O | 23.2 µM
